Experimental data from PubChem BioAssay AID1963833 (Molecular Pharmacology Branch, DTP, NCI, 2024).

System: 883617-216-R-J1-PDC complex spheroid viability
Test: Anticancer human tumor 883617-216-R-J1-PDC patient-derived bladder carcinoma cell line growth inhibition [POLQ]
Conditions: for IC50: curve of first compound; for viability, T/C: stronger effect = lower value
Method in brief: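 Three-cell-type spheroids modelling solid tumor plus stroma served as the readout system; POL inhibitors were tested individually and in combination, concentration ranges set by clinical Cmax where known.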

[1] = second compound 0.0316 µM, first compound 0.0316 µM
[2] = second compound 0.0316 µM, first compound 0.1 µM
[3] = second compound 0.0316 µM, first compound 0.316 µM
[4] = second compound 0.0316 µM, first compound 1 µM
[5] = second compound 0.0316 µM, first compound 3.16 µM
[6] = second compound 0.0316 µM, first compound 10 µM
[7] = second compound 0.1 µM, first compound 0.0316 µM
[8] = second compound 0.1 µM, first compound 0.1 µM
[9] = second compound 0.1 µM, first compound 0.316 µM
[10] = second compound 0.1 µM, first compound 1 µM
[11] = second compound 0.1 µM, first compound 3.16 µM
[12] = second compound 0.1 µM, first compound 10 µM
[13] = second compound 0.316 µM, first compound 0.0316 µM
[14] = second compound 0.316 µM, first compound 0.1 µM
[15] = second compound 0.316 µM, first compound 0.316 µM
[16] = second compound 0.316 µM, first compound 1 µM
[17] = second compound 0.316 µM, first compound 3.16 µM
[18] = second compound 0.316 µM, first compound 10 µM
[19] = second compound 1 µM, first compound 0.0316 µM
[20] = second compound 1 µM, first compound 0.1 µM
[21] = second compound 1 µM, first compound 0.316 µM
[22] = second compound 1 µM, first compound 1 µM
[23] = second compound 1 µM, first compound 3.16 µM
[24] = second compound 1 µM, first compound 10 µM
[25] = second compound 3.16 µM, first compound 0.0316 µM
[26] = second compound 3.16 µM, first compound 0.1 µM
[27] = second compound 3.16 µM, first compound 0.316 µM
[28] = second compound 3.16 µM, first compound 1 µM
[29] = second compound 3.16 µM, first compound 3.16 µM
[30] = second compound 3.16 µM, first compound 10 µM
[31] = second compound 10 µM, first compound 0.0316 µM
[32] = second compound 10 µM, first compound 0.1 µM
[33] = second compound 10 µM, first compound 0.316 µM
[34] = second compound 10 µM, first compound 1 µM
[35] = second compound 10 µM, first compound 3.16 µM
[36] = second compound 10 µM, first compound 10 µM
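Further: spheroids exposed to compounds for seven days before readout.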
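Wherever viability, T/C is given: 100% = DMSO vehicle control viability.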

## C#Cc1c(F)ccc2cc(O)cc(-c3ncc4c(N5CC6CCC(C5)N6)nc(OCC56CCCN5CC(F)C6)nc4c3F)c12 (stereo unspecified) + COC1C(OC(N)=O)C(O)C(Oc2ccc3c(O)c(NC(=O)c4ccc(O)c(CC=C(C)C)c4)c(=O)oc3c2C)OC1(C)C
Second compound 0.0316 µM
  IC50: > 10 µM
Second compound 0.1 µM
  IC50: > 10 µM
Second compound 0.316 µM
  IC50: > 10 µM
Second compound 1 µM
  IC50: > 10 µM
Second compound 3.16 µM
  IC50: > 10 µM
Second compound 10 µM
  IC50: > 10 µM
[1]
  viability, T/C: 90.3%
[2]
  viability, T/C: 108%
[3]
  viability, T/C: 96.2%
[4]
  viability, T/C: 97.9%
[5]
  viability, T/C: 81.1%
[6]
  viability, T/C: 75%
[7]
  viability, T/C: 121%
[8]
  viability, T/C: 100%
[9]
  viability, T/C: 90.4%
[10]
  viability, T/C: 83.4%
[11]
  viability, T/C: 87.3%
[12]
  viability, T/C: 78.2%
[13]
  viability, T/C: 96.1%
[14]
  viability, T/C: 114%
[15]
  viability, T/C: 90%
[16]
  viability, T/C: 91%
[17]
  viability, T/C: 70.3%
[18]
  viability, T/C: 67%
[19]
  viability, T/C: 99.7%
[20]
  viability, T/C: 98.8%
[21]
  viability, T/C: 83.8%
[22]
  viability, T/C: 91.4%
[23]
  viability, T/C: 81.9%
[24]
  viability, T/C: 86.3%
[25]
  viability, T/C: 98.6%
[26]
  viability, T/C: 93.6%
[27]
  viability, T/C: 95.5%
[28]
  viability, T/C: 94.4%
[29]
  viability, T/C: 84.4%
[30]
  viability, T/C: 76.3%
[31]
  viability, T/C: 85.8%
[32]
  viability, T/C: 101%
[33]
  viability, T/C: 101%
[34]
  viability, T/C: 85.7%
[35]
  viability, T/C: 91.8%
[36]
  viability, T/C: 73.6%

## CC(C)n1c(=O)n(C)c2cnc3cc(F)c(-c4ccc(OCCCN5CCCCC5)nc4)cc3c21 + COC1C(OC(N)=O)C(O)C(Oc2ccc3c(O)c(NC(=O)c4ccc(O)c(CC=C(C)C)c4)c(=O)oc3c2C)OC1(C)C
Second compound 0.0316 µM
  IC50: > 10 µM
Second compound 0.1 µM
  IC50: > 10 µM
Second compound 0.316 µM
  IC50: > 10 µM
Second compound 1 µM
  IC50: > 10 µM
Second compound 3.16 µM
  IC50: > 10 µM
Second compound 10 µM
  IC50: > 10 µM
[1]
  viability, T/C: 92.2%
[2]
  viability, T/C: 94.5%
[3]
  viability, T/C: 97.4%
[4]
  viability, T/C: 93.1%
[5]
  viability, T/C: 88.2%
[6]
  viability, T/C: 65.1%
[7]
  viability, T/C: 99%
[8]
  viability, T/C: 103%
[9]
  viability, T/C: 93.9%
[10]
  viability, T/C: 104%
[11]
  viability, T/C: 91.8%
[12]
  viability, T/C: 82.6%
[13]
  viability, T/C: 97%
[14]
  viability, T/C: 92.2%
[15]
  viability, T/C: 97.3%
[16]
  viability, T/C: 101%
[17]
  viability, T/C: 97%
[18]
  viability, T/C: 76.3%
[19]
  viability, T/C: 102%
[20]
  viability, T/C: 103%
[21]
  viability, T/C: 108%
[22]
  viability, T/C: 91.2%
[23]
  viability, T/C: 94.1%
[24]
  viability, T/C: 84.5%
[25]
  viability, T/C: 109%
[26]
  viability, T/C: 108%
[27]
  viability, T/C: 110%
[28]
  viability, T/C: 95.7%
[29]
  viability, T/C: 95.9%
[30]
  viability, T/C: 81%
[31]
  viability, T/C: 106%
[32]
  viability, T/C: 97.3%
[33]
  viability, T/C: 102%
[34]
  viability, T/C: 98.3%
[35]
  viability, T/C: 78.9%
[36]
  viability, T/C: 72.8%

## CCc1cc2c(N3CCc4c(cc(Cn5ccnc5)cc4-c4cn(C)nc4C(F)(F)F)C3=O)cc(C)nc2c(OC)n1 + COC1C(OC(N)=O)C(O)C(Oc2ccc3c(O)c(NC(=O)c4ccc(O)c(CC=C(C)C)c4)c(=O)oc3c2C)OC1(C)C
Second compound 0.0316 µM
  IC50: > 10 µM
Second compound 0.1 µM
  IC50: 8.76 µM
Second compound 0.316 µM
  IC50: 9.29 µM
Second compound 1 µM
  IC50: > 10 µM
Second compound 3.16 µM
  IC50: > 10 µM
Second compound 10 µM
  IC50: > 10 µM
[1]
  viability, T/C: 96.2%
[2]
  viability, T/C: 105%
[3]
  viability, T/C: 96.8%
[4]
  viability, T/C: 80.6%
[5]
  viability, T/C: 77.2%
[6]
  viability, T/C: 58.9%
[7]
  viability, T/C: 98.4%
[8]
  viability, T/C: 106%
[9]
  viability, T/C: 109%
[10]
  viability, T/C: 94.9%
[11]
  viability, T/C: 68%
[12]
  viability, T/C: 47.6%
[13]
  viability, T/C: 107%
[14]
  viability, T/C: 109%
[15]
  viability, T/C: 105%
[16]
  viability, T/C: 86.2%
[17]
  viability, T/C: 75%
[18]
  viability, T/C: 48%
[19]
  viability, T/C: 99%
[20]
  viability, T/C: 101%
[21]
  viability, T/C: 96.6%
[22]
  viability, T/C: 106%
[23]
  viability, T/C: 75.3%
[24]
  viability, T/C: 61.3%
[25]
  viability, T/C: 96.3%
[26]
  viability, T/C: 103%
[27]
  viability, T/C: 115%
[28]
  viability, T/C: 89.7%
[29]
  viability, T/C: 75.8%
[30]
  viability, T/C: 58.4%
[31]
  viability, T/C: 99.8%
[32]
  viability, T/C: 99.6%
[33]
  viability, T/C: 97.1%
[34]
  viability, T/C: 97.4%
[35]
  viability, T/C: 72.7%
[36]
  viability, T/C: 59.4%
